Assay results reported in article PMC12544700, “Identification of a Small Secretoneurin Derivative That Inhibits CaMKIIδ Activity” (Journal of Cellular and Molecular Medicine, 2025).
Peptide text beside a SMILES is read from it. * marks the point of attachment. Biotin = O=C1N[C@H]2[C@H](CS[C@H]2CCCCC(=O)*)N1; Ahx = NCCCCCC(=O)O

How the values were obtained:
human His‐CaMKIIδ‐T287D [1] = target: T1, human His‐CaMKIIδ‐T287D (Homo sapiens, UniProt Q13557, T287D); assay: ELISA-based binding to human His‐CaMKIIδ‐T287D; conditions: biotin‐ahx‐SN‐db‐short; values relative to biotin‐ahx‐Scram; Figure S2B, n = 6
T1 construct: Recombinant human His‐CaMKIIδ‐T287D and rat His‐CaMKIIδ‐T287D full‐length proteins; His; purchased Genscript Corp (custom made)
Description: (§1) A 96‐well microplate was coated with 1 μg/well of rat or human recombinant His‐CaMKIIδ‐T287D or CaMKIIδ fragments (custom made by Genscript) in 1× PBS overnight at 4°C with gentle tilting. Wells were washed with 1× PBS‐t (0.1% Tween‐20) and blocked with 0.5% gelatin (G‐1890 Gelatin type A, Sigma Merck, Darmstadt, Germany) or BSA (805095 30% BSA (Rinderalbumin 30%), Norsk Labex, Høvik, Norway) for 1 h at room temperature (RT), then incubated with 5 μL of biotinylated peptide (1 mM) for 2 h at 37°C with gentle tilting. The wells were then washed five times with 1× PBS‐t. To detect binding, the wells were incubated with a monoclonal anti‐biotin‐HRP conjugated antibody (1:5000 dilution, A‐0185, Sigma) for 30 min at RT. The washing steps were repeated, and the plate was incubated with the Ultra TMB solution (1‐step Ultra TMB‐ELISA Substrate Solution 34028, Thermo Fischer Scientific, Waltham, MA, USA) for 30 min at RT with gentle tilting. The reaction was stopped by adding 2 N HCl (100 μL), and the signal was measured at 450 nm by a plate reader (Hidex Sense Microplate Reader, Åbo, Finland). For the competition assay, 20 μL (1 mM) of T‐site binding peptides AKAP18δ‐N1, CN21 or CN27 (without any biotin tags) were incubated in the same well with 5 μL (1 mM) of SN biotinylated peptides. […]

human His‐CaMKIIδ‐T287D [2] = target: T1, human His‐CaMKIIδ‐T287D; assay: CaMKII pull-down with biotinylated peptides on streptavidin beads; assay type: binding; conditions: biotin‐SN‐db‐short vs biotin‐SN; immunoblot; Figure S2A, n = 8
Description: In the CaMKII pull‐down assay, the biotinylated peptides (20 μL) were coupled to 50 μL of streptavidin magnetic beads (88816, Thermo Fisher) in PBS for 2 h at 4°C with rotation. The bead‐bound peptides were thereafter incubated with 1 μg of human His‐CaMKIIδ‐T287D in 300 μL of PBS or PBS with 1% BSA for 2 h at 4°C with rotation. The protein complexes attached to the beads were then washed three times in 300 μL of IP buffer (20 mM Hepes, pH 7.5, 150 mM NaCl, 1 mM EDTA, 1% Triton X‐100, supplemented with complete protease inhibitor cocktail and phosphatase inhibitor cocktail) or PBS. Samples were boiled in SDS loading buffer at 95°C for 5 min before western blot analysis.
Lysates and immunoprecipitates were separated on 12% or 4%–15% Criterion TGX precast gels (5671044 and 5671084, Biorad, Hercules, CA, USA), blotted onto PVDF membranes (1704157 by Biorad or 03010040001 by Sigma Merck) and reversibly stained with Revert 700 Total Protein Stain (Li‐COR Biosciences, Lincoln, NE, USA). […] Blots were developed using ECL (RPN2236, GE Healthcare, Chicago, IL, USA) after four washing steps of 10 min in TBS‐t and the chemiluminescence signals were detected by Azure Biosystems 600 (Dublin, CA, USA). […] ImageJ [13] was used to quantify the blots. […]

[3] = system: CaMKIIδ fragments (aa 1–74, 1–165, 1–282, 1–311, 69–282); assay: ELISA-based binding to CaMKIIδ fragments; design: species or system rat; conditions: biotinylated peptide; fragments coated in wells; relative to Scram; Figure 2B, n = 9–13
Description: Recombinant human His‐CaMKIIδ‐T287D and rat His‐CaMKIIδ‐T287D full‐length proteins (T287D mutated to mimic active kinases) and rat His‐CaMKIIδ (1–74), rat His‐CaMKIIδ (1–165), rat His‐CaMKIIδ (1–282), rat His‐CaMKIIδ‐T287D (1–311), and rat His‐CaMKIIδ (69–282) recombinant fragments were generated by Genscript Corp.
as §1, with “The washing steps were repeated, and the plate was incubated with the Ultra TMB solution (1‐step Ultra TMB‐ELISA Substrate Solution 34028, Thermo Fischer Scientific, Waltham, MA, USA) for 30 min at RT with gentle tilting.” left out, “Finland).” for “Finland). For the competition assay, 20 μL (1 mM) of T‐site binding peptides AKAP18δ‐N1, CN21 or CN27 (without any biotin tags) were incubated in the same well with 5 μL (1 mM) of SN biotinylated peptides.”

[4] = target: T2, Recombinant rat CaMKIIδ‐T287D (Rattus norvegicus, UniProt P15791, T287D); assay: ELISA-based competition assay with T‐site binding peptides; conditions: 5 μL 1 mM biotin‐SN‐db‐short with 20 μL 1 mM untagged competitor; Figure 2C, n = 4–12
T2 construct: Recombinant human His‐CaMKIIδ‐T287D and rat His‐CaMKIIδ‐T287D full‐length proteins; His; purchased Genscript Corp (custom made)
Description: The wells were then washed five times with 1× PBS‐t. […] For the competition assay, 20 μL (1 mM) of T‐site binding peptides AKAP18δ‐N1, CN21 or CN27 (without any biotin tags) were incubated in the same well with 5 μL (1 mM) of SN biotinylated peptides.

T1 sequence (Q13557 whole entry T287D): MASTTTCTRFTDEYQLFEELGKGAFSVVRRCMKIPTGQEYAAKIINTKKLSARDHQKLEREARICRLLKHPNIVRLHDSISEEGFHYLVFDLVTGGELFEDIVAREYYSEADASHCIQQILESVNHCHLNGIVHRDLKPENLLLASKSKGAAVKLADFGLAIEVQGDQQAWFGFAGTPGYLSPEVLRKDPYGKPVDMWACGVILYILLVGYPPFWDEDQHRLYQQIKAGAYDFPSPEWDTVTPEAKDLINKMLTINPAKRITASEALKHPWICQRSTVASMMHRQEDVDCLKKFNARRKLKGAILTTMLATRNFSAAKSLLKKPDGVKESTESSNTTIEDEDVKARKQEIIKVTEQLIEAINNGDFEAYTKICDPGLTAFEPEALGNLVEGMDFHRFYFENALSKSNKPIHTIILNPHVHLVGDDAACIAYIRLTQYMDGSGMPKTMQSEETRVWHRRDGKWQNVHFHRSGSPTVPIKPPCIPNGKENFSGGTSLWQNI

With CC(C)C[C@H](NC(=O)[C@H](CCC(=O)O)NC(=O)[C@H](CCC(N)=O)NC(=O)[C@H](Cc1ccccc1)NC(=O)[C@H](Cc1ccccc1)NC(=O)[C@H](CO)NC(=O)[C@H](CCC(=O)O)NC(=O)[C@H](Cc1ccccc1)NC(=O)[C@@H](NC(=O)[C@H](C)NC(=O)[C@H](CC(C)C)NC(=O)[C@H](CO)NC(=O)[C@H](CCC(N)=O)NC(=O)[C@@H]1CCCN1C(=O)[C@@H](NC(=O)[C@H](Cc1ccc(O)cc1)NC(=O)[C@H](CCC(N)=O)NC(=O)[C@H](CCC(=O)O)NC(=O)CCCCCNC(=O)CCCC[C@@H]1SC[C@@H]2NC(=O)N[C@@H]21)[C@@H](C)O)[C@@H](C)O)C(=O)NCC(=O)N[C@@H](CCCCN)C(=O)O [SN‐db‐short] ({Biotin-Ahx}-EQYTPQSLATFESFFQELGK-OH; N-terminus and C-terminus assumed) the “Binding to recombinant human CaMKIIδ‐T287D (ELISA)” value (human His‐CaMKIIδ‐T287D [1]) was “increased binding”, the “Binding to recombinant human CaMKIIδ‐T287D vs. native SN (pull down)” value (human His‐CaMKIIδ‐T287D [2]) was “increased binding” and the “Binding to CaMKIIδ fragments” value [3] was “binding was detected for all fragments”. For the same molecule, the “SN‐db‐short binding to CaMKIIδ‐T287D in presence of competitor peptides AKAP18δ‐N1, CN21, CN27” value [4] was “only marginally outcompeted”.
